Measured values taken from patent US12054466B2, “Compounds for the treatment of clostridium difficile infection” (University of Notre Dame du Lac, priority 2016, dated 2024).
Converted amounts (≈) assume the structure as drawn. Where two headings read alike, the source gives them in different places.

Assays:
Format in all cases: cell-based
[1] = tested on: Fusobacterium nucleatum HM-992; assay: MIC against common gut bacteria; conditions: HM992; Fusobacterium nucleatum HM-992; read-out: MIC
C. difficile BAA-1812 = assay: MIC, broth microdilution; conditions: Clostridioides difficile, BAA1812, C. difficile BAA-1812
Eubacterium sp. HM-178 = assay: MIC against common gut bacteria; conditions: SP.HM178
C. difficile NR49305 = assay: MIC, broth microdilution; conditions: Clostridioides difficile, C. difficile NR49305 (NAP6, ribotype 002)
C. difficile BAA-1814 = assay: MIC, broth microdilution; conditions: Clostridioides difficile, BAA1814, C. difficile BAA-1814
Veillonella sp. HM-49 = assay: MIC against common gut bacteria; conditions: SP.HM49; Veillonella sp. HM-49; read-out: MIC
[2] = tested on: Bifidobacterium longum HM-846; assay: MIC against common gut bacteria; conditions: HM846; Bifidobacterium longum HM-846; read-out: MIC
[3] = tested on: Lactobacillus reuteri HM-102; assay: MIC against common gut bacteria; conditions: Limosilactobacillus reuteri, HM102; Lactobacillus reuteri HM-102; read-out: MIC
C. difficile BAA-1870 = assay: MIC, broth microdilution; conditions: Clostridioides difficile, BAA1870, C. difficile BAA-1870 (NAP1, ribotype 27)
C. difficile BAA-1803 = assay: MIC, broth microdilution; conditions: Clostridioides difficile, BAA1803, C. difficile BAA-1803 (NAP1, ribotype 027)
C. difficile NR49292 = assay: MIC, broth microdilution; conditions: Clostridioides difficile, C. difficile NR49292 (NAP2, ribotype 001_072)
C. difficile NR49310 = assay: MIC, broth microdilution; conditions: Clostridioides difficile, C. difficile NR49310 (NAP7, ribotype 078)
C. difficile ATCC43598 = assay: MIC, broth microdilution; conditions: Clostridioides difficile, C. difficile ATCC43598
[4] = tested on: Bacteroides fragilis HM-709; assay: MIC against common gut bacteria; conditions: HM709; Bacteroides fragilis HM-709; read-out: MIC
Bacteroides ovatus = assay: MIC against common gut bacteria; conditions: read-out: MIC
[5] = tested on: Lactobacillus gasseri HM-644; assay: MIC against common gut bacteria; conditions: HM644; Lactobacillus gasseri HM-644; read-out: MIC
C. difficile NR49302 = assay: MIC, broth microdilution; conditions: Clostridioides difficile, C. difficile NR49302 (NAP4, ribotype 020)
Bacteroides fragilis = assay: MIC against common gut bacteria; conditions: read-out: MIC
Bacteroides eggerthii = assay: MIC against common gut bacteria; conditions: read-out: MIC
[6] = tested on: Corynebacterium sp. HM-784; assay: MIC against common gut bacteria; conditions: SP.HM784; Corynebacterium sp. HM-784; incubated aerobically; read-out: MIC
C. difficile NR49294 = assay: MIC, broth microdilution; conditions: Clostridioides difficile, C. difficile NR49294 (NAP4, ribotype 014)
C. difficile ATCC43255 = assay: MIC, broth microdilution; conditions: Clostridioides difficile, C. difficile ATCC43255
C. difficile BAA-1804 = assay: MIC, broth microdilution; conditions: Clostridioides difficile, BAA1804, C. difficile BAA-1804
C. difficile BAA-1801 = assay: MIC, broth microdilution; conditions: Clostridioides difficile, BAA1801, C. difficile BAA-1801 (nontoxigenic)
C. difficile NR49318 = assay: MIC, broth microdilution; conditions: Clostridioides difficile, C. difficile NR49318 (NAP11, ribotype 106)
Bacteroides vulgatus = assay: MIC against common gut bacteria; conditions: Phocaeicola vulgatus; Bacteroides vulgatus; read-out: MIC
Bacteroides caccae = assay: MIC against common gut bacteria; conditions: read-out: MIC

SMILES: CCc1c(Cl)c(O)c(Cl)c(O)c1C(=O)O[C@H]1[C@H](O)[C@H](OC)[C@H](OC/C2=C\C=C\C[C@H](O)/C(C)=C/[C@H](CC)[C@@H](O[C@@H]3OC(C)(C)[C@@H](OC(=O)C(C)C)[C@H](O)[C@@H]3O)/C(C)=C/C(C)=C/C[C@@H]([C@@H](C)O)OC2=O)O[C@@H]1C [fidaxomicin]
- MIC [1]: < 0.06 µg/mL
- MIC (C. difficile BAA-1812; 24 h, read-out: MIC at 24 h): 0.015 µg/mL (≈ 0.0142 µM)
- MIC (C. difficile BAA-1812; 48 h, read-out: MIC at 48 h): 0.125 µg/mL (≈ 0.118 µM)
- MIC (Eubacterium sp. HM-178): 16 µg/mL (≈ 15.1 µM)
- MIC (C. difficile NR49305; 24 h, read-out: MIC at 24 h): 0.01 µg/mL (≈ 0.00945 µM)
- MIC (C. difficile NR49305; 48 h, read-out: MIC at 48 h): 0.01 µg/mL (≈ 0.00945 µM)
- MIC (C. difficile BAA-1814; 24 h, read-out: MIC at 24 h): ≤ 0.01 µg/mL
- MIC (C. difficile BAA-1814; 48 h, read-out: MIC at 48 h): 0.03 µg/mL (≈ 0.0284 µM)
- MIC (Veillonella sp. HM-49): 8 µg/mL (≈ 7.56 µM)
- MIC [2]: < 0.01 µg/mL
- MIC [3]: > 32 µg/mL
- MIC (C. difficile BAA-1870; 24 h, read-out: MIC at 24 h): < 0.25 µg/mL
- MIC (C. difficile BAA-1870; 48 h, read-out: MIC at 48 h): 0.25 µg/mL (≈ 0.236 µM)
- MIC (C. difficile BAA-1803; 24 h, read-out: MIC at 24 h): 0.5 µg/mL (≈ 0.473 µM)
- MIC (C. difficile BAA-1803; 48 h, read-out: MIC at 48 h): 1 µg/mL (≈ 0.945 µM)
- MIC (C. difficile NR49292; 24 h, read-out: MIC at 24 h): 0.25 µg/mL (≈ 0.236 µM)
- MIC (C. difficile NR49292; 48 h, read-out: MIC at 48 h): 0.5 µg/mL (≈ 0.473 µM)
- MIC (C. difficile NR49310; 24 h, read-out: MIC at 24 h): ≤ 0.01 µg/mL
- MIC (C. difficile NR49310; 48 h, read-out: MIC at 48 h): ≤ 0.01 µg/mL
- MIC (C. difficile ATCC43598; 24 h, read-out: MIC at 24 h): 0.01 µg/mL (≈ 0.00945 µM)
- MIC (C. difficile ATCC43598; 48 h, read-out: MIC at 48 h): 0.01 µg/mL (≈ 0.00945 µM)
- MIC [4]: > 32 µg/mL
- MIC (Bacteroides ovatus): > 32 µg/mL
- MIC [5]: 2 µg/mL (≈ 1.89 µM)
- MIC (C. difficile NR49302; 24 h, read-out: MIC at 24 h): 0.03 µg/mL (≈ 0.0284 µM)
- MIC (C. difficile NR49302; 48 h, read-out: MIC at 48 h): 0.03 µg/mL (≈ 0.0284 µM)
- MIC (Bacteroides fragilis): > 32 µg/mL
- MIC (Bacteroides eggerthii): > 32 µg/mL
- MIC [6]: < 0.06 µg/mL
- MIC (C. difficile NR49294; 24 h, read-out: MIC at 24 h): ≤ 0.01 µg/mL
- MIC (C. difficile NR49294; 48 h, read-out: MIC at 48 h): 0.01 µg/mL (≈ 0.00945 µM)
- MIC (C. difficile ATCC43255; 24 h, read-out: MIC at 24 h): 0.01 µg/mL (≈ 0.00945 µM)
- MIC (C. difficile ATCC43255; 48 h, read-out: MIC at 48 h): 0.01 µg/mL (≈ 0.00945 µM)
- MIC (C. difficile BAA-1804; 24 h, read-out: MIC at 24 h): < 0.25 µg/mL
- MIC (C. difficile BAA-1804; 48 h, read-out: MIC at 48 h): < 0.25 µg/mL
- MIC (C. difficile BAA-1801; 24 h, read-out: MIC at 24 h): 0.03 µg/mL (≈ 0.0284 µM)
- MIC (C. difficile BAA-1801; 48 h, read-out: MIC at 48 h): 0.125 µg/mL (≈ 0.118 µM)
- MIC (C. difficile NR49318; 24 h, read-out: MIC at 24 h): 0.25 µg/mL (≈ 0.236 µM)
- MIC (C. difficile NR49318; 48 h, read-out: MIC at 48 h): 0.125 µg/mL (≈ 0.118 µM)
- MIC (Bacteroides vulgatus): > 32 µg/mL
- MIC (Bacteroides caccae): > 32 µg/mL
